Assay results as given in the supplement of paper PMC12137928.
Counter-ions that a name gives are not always drawn.

System: HCT116
Conditions: 72 h
How it was run: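 After seeding at 250 cells per well in 1536-well plates, HCT116 cells were given 5 h to attach. CellTiter-Glo luminescence, scaled to 0% for vehicle and -100% for positive control, was pattern-corrected. Fitting with a four-parameter Hill model produced IC50 and maximal efficacy.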

SMILES | IC50 cell viability (ICRF193 0 nM) | IC50 cell viability (ICRF193 200 nM)
Clc1ccc(C(c2ccc(Cl)cc2)C(Cl)(Cl)Cl)cc1 [p,p'-DDT] | > 45.8 µM | > 45.8 µM
CCCCCCCCCCCCCCCCCCO [1-Octadecanol] | > 45.8 µM | > 45.8 µM
COC([CH2][Hg+])CNC(=O)c1ccccc1OCC(=O)O.[OH-] (stereo unspecified) [Mersalyl acid] | > 45.8 µM | > 45.8 µM
Cc1cc(O)c2c(O)c3c(O)cccc3cc2c1 [Chrysarobin] | > 45.8 µM | > 45.8 µM
CS(=O)(=O)c1ccc(C(=O)Nc2ccc(Cl)c(-c3ccccn3)c2)c(Cl)c1 [Vismodegib] | > 45.8 µM | > 45.8 µM
Oc1cccc2cccnc12 [8-Quinolinol Salicylic acid (1:1)] | > 45.8 µM | > 45.8 µM
NCCCC[C@H](NC(=O)[C@@H]1CCCN1C(=O)[C@@H]1CSSC[C@H](NC(=O)CNC(=O)CNC(=O)CN)C(=O)N[C@@H](Cc2ccc(O)cc2)C(=O)N[C@@H](Cc2ccccc2)C(=O)N[C@@H](CCC(N)=O)C(=O)N[C@@H](CC(N)=O)C(=O)N1)C(=O)NCC(N)=O [Terlipressin] | > 45.8 µM | > 45.8 µM
Cn1c(=O)c2c(ncn2C)n(C)c1=O [Caffeine] | > 45.8 µM | > 45.8 µM
COc1nc(C)nc(Cl)c1NC1=NCCN1 [Moxonidine hydrochloride hydrate] | > 45.8 µM | > 45.8 µM
Cc1c(C(N)=O)cc([N+](=O)[O-])cc1[N+](=O)[O-] [Zoalene] | > 45.8 µM | > 45.8 µM
CO[C@H]1/C=C/O[C@@]2(C)Oc3c(C)c(O)c4c(O)c(c5c(nc6cc(C)ccn65)c4c3C2=O)NC(=O)/C(C)=C\C=C\[C@H](C)[C@H](O)[C@@H](C)[C@@H](O)[C@@H](C)[C@H](OC(C)=O)[C@@H]1C [Rifaximin] | > 45.8 µM | > 45.8 µM
O=P(O)(O)C(O)(Cc1cccnc1)P(=O)(O)O [Risedronate sodium] | > 45.8 µM | > 45.8 µM
CC(C)NC1CCn2c(=O)[nH]c3cccc(c32)C1O (stereo unspecified) [Zilpaterol·HCl] | > 45.8 µM | > 45.8 µM
CCCCOCCOCCOCc1cc2c(cc1CCC)OCO2 [Piperonyl butoxide] | > 45.8 µM | > 45.8 µM
C[N+](C)(C)CCCCCC[N+](C)(C)C [N,N,N,N',N',N'-Hexamethylhexane-1,6-diaminium] | > 45.8 µM | > 45.8 µM
CC(C)CCC(=O)O[C@H]1CC[C@H]2[C@@H]3CCC4=CC(=O)CC[C@]4(C)[C@H]3CC[C@]12C [Testosterone isocaproate] | > 45.8 µM | > 45.8 µM

SMILES | IC50 cell viability (ICRF193 0 nM) | IC50 cell viability (ICRF193 200 nM)
CC(O)Cn1cnc2c1c(=O)n(C)c(=O)n2C (stereo unspecified) [Proxyphylline] | > 45.8 µM | > 45.8 µM
O=c1cc(CO)occ1O [Kojic acid] | > 45.8 µM | > 45.8 µM
C=CCCCCCCCCC(=O)O[C@H]1CC[C@H]2[C@@H]3CCC4=CC(=O)C=C[C@]4(C)[C@H]3CC[C@]12C [Boldenone Undecylenate] | > 45.8 µM | > 45.8 µM
C[C@@H](O)[C@H]1C(=O)N2C(C(=O)[O-])=C(SC3Cn4cnc[n+]4C3)[C@H](C)[C@H]12 (stereo partly specified) [Biapenem] | > 45.8 µM | > 45.8 µM
C/C=C\c1ccc(O)c(OC)c1 [Isoeugenol] | > 45.8 µM | > 45.8 µM
Cc1ccccc1O [o-Cresol] | > 45.8 µM | > 45.8 µM
OB1OCc2cc(F)ccc21 [AN-2690] | > 45.8 µM | > 45.8 µM
Nc1cc(Cl)c(NC2=NCCN2)c(Cl)c1 [p-Aminoclonidine hydrochloride] | > 45.8 µM | > 45.8 µM
O=C1c2cccc(O)c2C(=O)c2c(O)cccc21 [Danthron] | > 45.8 µM | > 45.8 µM
CCCCCC/C=C\CCCCCCCC(=O)O [9(Z)-Hexadecenoic acid] | > 45.8 µM | > 45.8 µM
O=C(O)C(O)C(O)C(=O)O (stereo not drawn) [D(-)-Tartaric acid] | > 45.8 µM | > 45.8 µM
O=S(=O)(O)CCS [Sodium 2-mercaptoethanesulfonate] | > 45.8 µM | > 45.8 µM
COc1ccc(C(CN(C)C)C2(O)CCCCC2)cc1 (stereo unspecified) [Venlafaxine] | > 45.8 µM | > 45.8 µM
c1ccc2ccccc2c1 [NAPHTHALENE, ZONE REFINED] | > 45.8 µM | > 45.8 µM
O=C(O)c1ccccc1C(c1ccc(O)cc1)c1ccc(O)cc1 [Phenolphthalin] | > 45.8 µM | > 45.8 µM
CCN(CC)C(=S)SSC(=S)N(CC)CC [Disulfiram] | > 45.8 µM | > 45.8 µM

More lines, now with the values ahead:

IC50 cell viability (ICRF193 0 nM) | IC50 cell viability (ICRF193 200 nM) | SMILES
> 45.8 µM | > 45.8 µM | CC(=O)OCC(=O)[C@@]1(O)CC[C@H]2[C@@H]3CCC4=CC(=O)C=C[C@]4(C)[C@H]3[C@@H](O)C[C@@]21C [Prednisolone acetate]
> 45.8 µM | > 45.8 µM | COc1cccc(OC)c1C(=O)N[C@@H]1C(=O)N2[C@@H]1SC(C)(C)[C@@H]2C(=O)O [Methicillin sodium hydrate]
> 45.8 µM | > 45.8 µM | COc1ccc(C(=O)Nc2ccccc2CCC2CCCCN2C)cc1 (stereo unspecified) [Encainide hydrochloride]
> 45.8 µM | > 45.8 µM | C[N+]1(C)[C@@H]2CC[C@H]1C[C@@H](OC(=O)C(O)c1ccccc1)C2 (stereo partly specified) [HOMATROPINE METHYLBROMIDE]
> 45.8 µM | > 45.8 µM | CCOC(=O)[C@H](CCc1ccccc1)N[C@@H](C)C(=O)N1Cc2ccccc2C[C@H]1C(=O)O [Quinapril hydrochloride]
> 45.8 µM | > 45.8 µM | Cc1ccccc1C(OCCN(C)C)c1ccccc1 (stereo unspecified) [Orphenadrine dihydrogen citrate]
> 45.8 µM | > 45.8 µM | O=C(OCCO)c1ccccc1O [BETA-HYDROXYETHYL SALICYLATE]
> 45.8 µM | > 45.8 µM | CCCC(=O)O[C@]1(C(=O)COC(=O)CC)[C@@H](C)C[C@H]2[C@@H]3CCC4=CC(=O)C=C[C@]4(C)[C@@]3(F)[C@@H](O)C[C@@]21C [Betamethasone butyrate propionate]
> 45.8 µM | > 45.8 µM | C[C@]12CCC(=O)C=C1CC[C@H]1[C@@H]3CC[C@](O)(C(=O)CO)[C@@]3(C)C[C@H](O)[C@@]12F [Fludrocortisone]
> 45.8 µM | > 45.8 µM | CCCCCOC(=O)Nc1nc(=O)n([C@@H]2O[C@H](C)[C@@H](O)[C@H]2O)cc1F [Capecitabine]
> 45.8 µM | > 45.8 µM | Cc1cccc(C)c1N(CCCc1cccnc1)C(=O)C(C)N (stereo unspecified) [Ro 22-9194]
> 45.8 µM | > 45.8 µM | Nc1c(CC(=O)O)cccc1C(=O)c1ccccc1 [Amfenac Sodium]
> 45.8 µM | > 45.8 µM | CN(C)CCOC(C)(c1ccccc1)c1ccccn1 (stereo unspecified) [Doxylamine succinate]
> 45.8 µM | > 45.8 µM | CC1CCCCN1CCCOC(=O)c1ccc(OC2CCCCC2)cc1 (stereo unspecified) [Cyclomethycaine]
> 45.8 µM | > 45.8 µM | CCCCCCOC(=O)NC(=N)c1ccc(NCc2nc3cc(C(=O)N(CCC(=O)OCC)c4ccccn4)ccc3n2C)cc1 [BIBR-1048]
> 45.8 µM | > 45.8 µM | CCCc1nc(C)c2c(=O)nc(-c3cc(S(=O)(=O)N4CCN(CC)CC4)ccc3OCC)[nH]n12 [Vardenafil]

IC50 cell viability (ICRF193 0 nM) | IC50 cell viability (ICRF193 200 nM) | SMILES
> 45.8 µM | > 45.8 µM | CC1CC(=O)NN=C1c1ccc(NCC(C)(C)NCC(O)COc2cc(Cl)ccc2C#N)cc1 (stereo unspecified) [Oberadilol]
> 45.8 µM | > 45.8 µM | CO/N=C(\C(=O)N[C@@H]1C(=O)N2C(C(=O)OCOC(=O)C(C)(C)C)=C(/C=C\c3scnc3C)CS[C@H]12)c1csc(N)n1 [Cefditoren (Pivoxil)]
> 45.8 µM | > 45.8 µM | CCC1=C(C)CN(C(=O)NCCc2ccc(S(=O)(=O)NC(=O)N[C@H]3CC[C@H](C)CC3)cc2)C1=O [Glimepiride]
> 45.8 µM | > 45.8 µM | O=C(NCCO[N+](=O)[O-])c1cccnc1 [Nicorandil]
> 45.8 µM | > 45.8 µM | Cc1cc(C)cc(OCC2CNC(=O)O2)c1 (stereo unspecified) [Metaxalone]
> 45.8 µM | > 45.8 µM | CC(=O)OCC(=O)[C@@]1(O)CC[C@H]2[C@@H]3CCC4=CC(=O)C=C[C@]4(C)[C@@]3(F)[C@@H](O)C[C@@]21C [Isoflupredone acetate]
> 45.8 µM | > 45.8 µM | CCN(CC)CCOC(=O)c1cccnc1 [Nicametate citrate]
> 45.8 µM | > 45.8 µM | Cn1nnnc1SCC1=C(C(=O)O)N2C(=O)[C@@H](NC(=O)[C@H](OC=O)c3ccccc3)[C@H]2SC1 [Cefamandole (nafate)]
> 45.8 µM | > 45.8 µM | CC(C)(Oc1ccc(CCNC(=O)c2ccc(Cl)cc2)cc1)C(=O)O [Bezafibrate]
> 45.8 µM | > 45.8 µM | O=C(OCc1ccccc1)c1cccnc1 [BENZYL NICOTINATE]
> 45.8 µM | > 45.8 µM | CCOC(=O)[C@H](CCc1ccccc1)N[C@@H](C)C(=O)N1[C@H](C(=O)O)C[C@H]2CCCC[C@@H]21 [TRANDOLAPRIL]
> 45.8 µM | > 45.8 µM | Cc1ccc(Sc2ccccc2N2CCNCC2)c(C)c1 [Brintellix]
> 45.8 µM | > 45.8 µM | C[N+]1(C)CCC(OC(=O)C(O)(c2ccccc2)C2CCCC2)C1 (stereo unspecified) [Glycopyrrolate bromide]
> 45.8 µM | > 45.8 µM | COCCc1ccc(OCC(O)CNC(C)C)cc1 (stereo unspecified) [Metoprolol tartrate]
> 45.8 µM | > 45.8 µM | O=C1Cc2cc(CCN3CCN(c4nsc5ccccc45)CC3)c(Cl)cc2N1 [Ziprasidone]
